Results on ten compounds are retold here after US10023575B2, “Cyclic ether derivatives of pyrazolo[1,5-a]pyrimidine-3-carboxyamide” (Boehringer Ingelheim International GmbH, priority 2015, dated 2018).

One series addresses PDE10 (Homo sapiens (Human), UniProt Q9Y233). As to the kind of experiment: Phosphodiesterase (PDE) 10 assay with fluorescent substrate (IMAP, fluorescence polarization). Format: biochemical. The note with it: labeled cAMP 30 nM.
The target in the next series is PDE 2A (Homo sapiens (Human), UniProt O00408). Description: Phosphodiesterase (PDE) 2A assay with fluorescent substrate (IMAP, fluorescence polarization). Format: biochemical. The note with it: labeled cAMP 30 nM, read-out: PDE2 IC50. On the technique in general: In fluorescence polarisation assays a small probe gives low polarisation when free and higher when bound to something large.
Chain of PDE 2A (O00408 whole entry, species assumed): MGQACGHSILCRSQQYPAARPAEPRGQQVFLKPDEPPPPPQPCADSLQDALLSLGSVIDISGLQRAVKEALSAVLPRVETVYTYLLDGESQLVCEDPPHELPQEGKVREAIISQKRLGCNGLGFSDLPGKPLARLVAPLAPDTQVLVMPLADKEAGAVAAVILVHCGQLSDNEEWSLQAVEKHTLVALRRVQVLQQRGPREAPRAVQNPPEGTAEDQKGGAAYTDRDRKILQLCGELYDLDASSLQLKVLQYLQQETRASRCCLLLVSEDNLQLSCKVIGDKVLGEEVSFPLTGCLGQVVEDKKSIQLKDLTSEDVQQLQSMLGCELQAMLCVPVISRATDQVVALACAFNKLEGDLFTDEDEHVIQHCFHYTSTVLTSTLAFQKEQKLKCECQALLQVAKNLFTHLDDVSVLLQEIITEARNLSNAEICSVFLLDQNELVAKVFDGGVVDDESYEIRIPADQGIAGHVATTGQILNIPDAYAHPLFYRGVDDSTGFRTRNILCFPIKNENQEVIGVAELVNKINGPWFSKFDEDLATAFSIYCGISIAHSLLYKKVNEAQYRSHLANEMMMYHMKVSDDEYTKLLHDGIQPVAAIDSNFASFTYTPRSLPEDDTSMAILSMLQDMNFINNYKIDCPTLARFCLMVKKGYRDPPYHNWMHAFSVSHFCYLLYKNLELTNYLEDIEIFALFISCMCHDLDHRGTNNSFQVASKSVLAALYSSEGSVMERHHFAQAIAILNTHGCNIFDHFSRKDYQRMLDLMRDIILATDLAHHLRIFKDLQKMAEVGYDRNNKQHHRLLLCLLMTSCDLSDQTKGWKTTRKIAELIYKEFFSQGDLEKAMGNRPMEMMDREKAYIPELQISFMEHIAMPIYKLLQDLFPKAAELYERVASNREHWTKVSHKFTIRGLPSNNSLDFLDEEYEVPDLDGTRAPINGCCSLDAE

Series [1] is described as follows: Metabolic stability in pooled human liver microsomes. In kind it is in vitro ADME. To be noted: 1 mg/mL protein, 1 μM compound, 37° C.; for Half-life t½ human: human liver microsomes; for half-life at 1 µM: human, pooled human liver microsomes, pH 7.6, human liver microsomes, read-out: Half-life t½ human. On the procedure: The metabolic degradation of the test compound was assayed at 37° C. with pooled liver microsomes from various species. The final incubation volume of 100 μl per time point contains TRIS buffer pH 7.6 at room temperature (0.1 M), magnesium chloride (5 mM), microsomal protein (1 mg/mL for human and dog, 0.5 mg/mL for other species) and the test compound at a final concentration of 1 μM. Following a short preincubation period at 37° C., the reactions were initiated by addition of betanicotinamide adenine dinucleotide phosphate, reduced form (NADPH, 1 mM), and terminated by transferring an aliquot into solvent after different time points. […] The half-life was determined by the slope of the semi-logarithmic plot of the concentration-time profile.
(Liver microsomes are a subcellular fraction often used to study metabolism.)

Series [2] concerns MDCK-MDR1 cell monolayers. Description: Assessment of efflux in MDCK cells transfected with the human MDR1 gene (MDCK assay). Format: in vitro ADME, canine. To be noted: for efflux ratio: MDCK-MDR1, Papp (b-a) divided by Papp (a-b); for Papp (a-b) mean: MDCK-MDR1, apical-to-basal, pH 7.4, 37° C. On the procedure:
Assessment of Efflux in Madin-Darby Canine Kidney Cells Transfected with the Human MDR1 Gene (MDCK Assay)
Apparent permeability coefficients (PE) of the compounds across the MDCK-MDR1 cell monolayers are measured (pH 7.4, 37° C.) in apical-to-basal (AB) and basal-to-apical (BA) transport direction. AB permeability (PEAB) represents drug absorption from the blood into the brain and BA permeability (PEBA) drug efflux from the brain back into the blood via both passive permeability as well as active transport mechanisms mediated by efflux and uptake transporters that are expressed on the MDCK-MDR1 cells, predominantly by the overexpressed human MDR1 P-gp. The compounds are assigned to permeability/absorption classes by comparison of the AB permeabilities with the AB permeabilities of reference compounds with known in vitro permeability and oral absorption in the human. Identical or similar permeabilities in both transport directions indicate passive permeation, vectorial permeability points to additional active transport mechanisms. Higher PEBA than PEAB indicates the involvement of active efflux mediated by MDR1 P-gp. Active transport is concentration-dependently saturable.
MDCK-MDR1 cells (1-2×10e5 cells/1 cm2 area) are seeded on filter inserts (Costar transwell polycarbonate or PET filters, 0.4 μm pore size) and cultured (DMEM) for 7 days. Subsequently, the MDR1 expression is boosted by culturing the cells with 5 mM sodium butyrate in full medium for 2 days. Compounds are dissolved in appropriate solvent (like DMSO, 1-20 mM stock solutions). […] The transport solution (TL) is applied to the apical or basolateral donor side for measuring A-B or B-A permeability (3 filter replicates), respectively. The receiver side contains the same buffer as the donor side. Samples are collected at the start and end of experiment from the donor and at various time intervals for up to 2 hours also from the receiver side for concentration measurement by HPLC-MS/MS or scintillation counting. Sampled receiver volumes are replaced with fresh receiver solution. Efflux ratio is calculated dividing the Papp (b-a) values by the Papp (a-b) values.

Series [3] in a line: Plasma protein binding with equilibrium dialysis, human plasma. In kind it is in vitro ADME. The note with it: equilibrium dialysis 2 hours 37° C.; for PPB HUM % BINDING: human plasma, 1.0 μM; for fraction unbound at 2 h, 1 µM: human, pooled human plasma (with NaEDTA), pH 7.4, human plasma, read-out: PPB HUM % BINDING (converted). An excerpt: (§1) Plasma Protein Binding (Determination of Human and Rat Plasma Protein Binding with Equilibrium Dialysis)
(§2) This equilibrium dialysis (ED) technique is used to determine the approximate in vitro fractional binding of test compounds to human and rat plasma proteins.
(§3) Dianorm Teflon dialysis cells (micro 0.2) are used. Each cell consists of a donor and an acceptor chamber, separated by an ultrathin semipermeable membrane with a 5 kDa molecular weight cutoff.
(§4) Stock solutions for each test compound are prepared in DMSO at 1 mM and diluted to a final concentration of 1.0 μM. The subsequent dialysis solutions are prepared in pooled human and rat plasma (with NaEDTA)
(§5) Aliquots of 200 μL dialysis buffer (100 mM potassium phosphate, pH 7.4) are dispensed into the buffer chamber. Aliquots of 200 μL test compound dialysis solution are dispensed into the plasma chambers. Incubation is carried out for 2 hours under rotation at 37° C.
(§6) At the end of the dialysis period, the dialysate is transferred into reaction tubes. The tubes for the buffer fraction contain 0.2 ml Acetonitril/water (80/20). Aliquots of 25 μl of the plasma dialysate are transferred into deep well plates and mixed with 25 μl Acetonitril/water (80/20), 25 μl buffer, 25 μl calibration solution and 25 μl Internal Standard solution. Protein precipitation is done by adding 200 μl Acetonitrile. Aliquots of 50 μl of the buffer dialysate are transferred into deep well plates and mixed with 25 μl blank plasma, 25 μl Internal Standard solution and 200 μl Acetonitril. Samples are measured on HPLC-MS/MS-Systems and evaluated with Analyst-Software.
(§7) Percent bound is calculated with the formula: % bound=(plasma concentration−buffer concentration/plasma concentration)×100 and % free is calculated as difference.
For orientation: Equilibrium dialysis compares concentrations on both sides of a semipermeable membrane.

The nature of series [4]: In-vivo effect: animal experiments and sample analysis (plasma, brain, CSF concentration). To be noted: rat, 0.5 h between administration and CSF sampling; for concentration at 0.5 h: doses of 10.0 or 5 μmol/kg. On the procedure: In-Vivo Effect: Animal Experiments and Sample Analysis (CSF):
CSF samples were carefully collected by puncture of the cisterna magna under anesthaesia. Immediately after CSF sampling, blood was taken by heart puncture and brains were dissected out. Blood was collected in EDTA-coated microvettes and plasma was prepared by centrifugation. Concentration of the test compounds in plasma, CSF or brain homogenate was determined using HPLC-MS-MS.

Series [5] in a line: Plasma protein binding with equilibrium dialysis, rat plasma. In kind it is in vitro ADME. The note with it: equilibrium dialysis 2 hours 37° C.; for fraction unbound at 2 h, 1 µM: rat, pooled rat plasma (with NaEDTA), pH 7.4, rat plasma, read-out: PPB RAT % BINDING (converted).
Text: as §1, §2, §3, §4, §5, §6, §7

Where [6] appears, read: brain homogenate, read-out: conc brain.
The mark [7] stands for this setting: brain, read-out: c(brain)/c(plasma).

Like-named read-outs stand apart in the source and are kept apart here.

The IC50 is the midpoint of a concentration-inhibition curve. Broadly, the efflux ratio is the permeability from basolateral to apical divided by that in the opposite direction, in the common usage. By half-life is commonly meant the time needed for the level to fall by half in the phase considered.

Chain of PDE10 (Q9Y233 whole entry): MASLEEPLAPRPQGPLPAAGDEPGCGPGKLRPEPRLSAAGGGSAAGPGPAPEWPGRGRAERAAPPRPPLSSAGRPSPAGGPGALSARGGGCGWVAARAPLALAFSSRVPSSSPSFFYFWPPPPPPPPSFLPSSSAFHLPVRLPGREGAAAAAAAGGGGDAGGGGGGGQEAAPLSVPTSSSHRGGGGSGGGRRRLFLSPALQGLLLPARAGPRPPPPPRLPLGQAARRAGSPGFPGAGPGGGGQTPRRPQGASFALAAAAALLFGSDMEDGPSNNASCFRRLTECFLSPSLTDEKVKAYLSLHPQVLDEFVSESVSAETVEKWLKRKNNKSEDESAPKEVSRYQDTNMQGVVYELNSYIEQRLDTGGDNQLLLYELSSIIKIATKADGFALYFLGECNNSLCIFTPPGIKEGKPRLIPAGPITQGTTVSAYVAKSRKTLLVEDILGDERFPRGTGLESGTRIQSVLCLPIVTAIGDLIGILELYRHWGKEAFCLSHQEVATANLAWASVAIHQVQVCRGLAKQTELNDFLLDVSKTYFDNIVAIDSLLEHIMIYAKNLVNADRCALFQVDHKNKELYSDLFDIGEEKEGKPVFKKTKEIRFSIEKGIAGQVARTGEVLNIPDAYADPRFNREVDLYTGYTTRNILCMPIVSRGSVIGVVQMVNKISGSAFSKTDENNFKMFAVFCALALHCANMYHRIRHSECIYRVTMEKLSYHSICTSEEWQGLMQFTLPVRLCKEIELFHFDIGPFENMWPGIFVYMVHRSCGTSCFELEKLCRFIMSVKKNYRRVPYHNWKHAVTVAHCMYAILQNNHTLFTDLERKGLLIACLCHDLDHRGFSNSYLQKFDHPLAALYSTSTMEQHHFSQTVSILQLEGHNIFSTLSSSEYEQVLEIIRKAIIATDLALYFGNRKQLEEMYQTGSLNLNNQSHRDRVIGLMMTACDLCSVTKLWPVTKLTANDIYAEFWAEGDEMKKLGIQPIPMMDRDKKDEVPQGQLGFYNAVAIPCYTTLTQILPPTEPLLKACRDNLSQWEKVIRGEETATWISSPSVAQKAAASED

In the case of `O=C(NC1(c2ccc(C(F)(F)F)cc2F)COCC1O)c1cnn2cc(C3CC3)cnc12` (single isomer, unassigned) [Example 70], at PDE10, the IC50 is > 10000 nM. Also, the IC50 at PDE 2A came out at 1250 nM. Further, the “Half-life t½ human” value in series [1] worked out at 1.05 h. Moreover, in series [2], the efflux ratio amounted to 2.1 and the “Papp (a-b) mean” value is 20 10-6 cm/s. Further, in series [3], the “PPB HUM % BINDING” value came to 79.4%.

On to `O=C(NC1(c2ccc(C(F)(F)F)cc2F)COCC1O)c1cnn2cc(C3CC3)cnc12` (single isomer, unassigned) [Example 71], for which, at PDE10, the IC50 was > 10000 nM. Moreover, at PDE 2A, the IC50 is 13 nM. The “Half-life t½ human” value in series [1] was >2.17 h. For the same compound, in series [2], the efflux ratio amounted to 1.9 and the “Papp (a-b) mean” value is on record as 23 10-6 cm/s. Also, the “PPB HUM % BINDING” value in series [3] was 81.1%.

Consider `Cc1cnc2c(C(=O)NC3(c4ccc(C(F)(F)F)cc4F)CCOCC3O)cnn2c1` (single isomer, unassigned) [Example 81a], for which the IC50 at PDE10 was > 10000 nM. Moreover, the half-life at 1 µM in series [1] was > 2.17 h. Besides, the concentration at 0.5 h in series [4] (setting [6]) is 1070 nM; in series [4] (plasma, read-out: conc plasma), 2460 nM; in series [4] (read-out: conc CSF), 261 nM. For the same compound, the fraction unbound at 2 h, 1 µM in series [3] is 0.37; in series [5] it was 0.257.

Turning to `Cc1cnc2c(C(=O)NC3(c4ccc(C(F)(F)F)cc4F)CCOCC3O)cnn2c1` (single isomer, unassigned) [Example 81b], on PDE10, the IC50 is > 10000 nM. Besides, the “Half-life t½ human” value in series [1] is >2.17 h. For the same compound, the “Papp (a-b) mean” value in series [2] is listed as 64 10-6 cm/s. In addition, the “PPB HUM % BINDING” value in series [3] was 65.3%. Also, the “PPB RAT % BINDING” value in series [5] (rat plasma, 1.0 μM) came out at 66.2%.

As for `O=C(NC1(c2ccc(C(F)(F)F)cc2F)CCOCC1O)c1cnn2cc(C3CC3)cnc12` (single isomer, unassigned) [Example 82a], the IC50 against PDE10 was > 10000 nM; at PDE 2A, 1.2 nM. Further, the half-life at 1 µM in series [1] was > 2.17 h. Moreover, the concentration at 0.5 h in series [4] (setting [6]) worked out at 1180 nM; in series [4] (plasma, read-out: conc plasma), 3320 nM; in series [4] (read-out: conc CSF), 157 nM. Also, the Kp at 0.5 h in series [4] (setting [7]) was determined as 0.36; in series [4] (read-out: c(CSF)/c(plasma)), 0.05. In addition, the fraction unbound at 2 h, 1 µM in series [3] was 0.213; in series [5] it was 0.135.

`Cc1cnc2c(C(=O)NC3(c4ccc(C(F)(F)F)cc4F)CCOCC3(C)O)cnn2c1` (single isomer, unassigned) [Example 83a]: the half-life at 1 µM in series [1] is > 2.17 h. In addition, the concentration at 0.5 h in series [4] (setting [6]) was 449 nM; in series [4] (plasma, read-out: conc plasma), 794 nM; in series [4] (read-out: conc CSF), 61 nM. The fraction unbound at 2 h, 1 µM is 0.156 in series [3] and 0.178 in series [5].

In the case of `Cc1cnc2c(C(=O)NC3(c4ccc(C(F)(F)F)cc4F)CCOCC3(C)O)cnn2c1` (single isomer, unassigned) [Example 84a], the “Papp (a-b) mean” value in series [2] was 31 10-6 cm/s.

On to `Cc1cnc2c(C(=O)NC3(c4ccc(C(F)(F)F)cc4F)CCOCC3(C)O)cnn2c1` (single isomer, unassigned) [Example 84b], for which, in series [2], the “Papp (a-b) mean” value is given as 23 10-6 cm/s.

Consider `Cc1nn2cc(C3CC3)cnc2c1C(=O)NC1(c2ccc(C(F)(F)F)cn2)CCOCC1` [Example 21], for which the IC50 was > 10000 nM on PDE10 and 74 nM on PDE 2A. Further, in series [1], the half-life at 1 µM is > 2.17 h. For the same compound, the concentration at 0.5 h in series [4] (setting [6]) turned out to be 1320 nM; in series [4] (plasma, read-out: conc plasma), 1210 nM; in series [4] (read-out: conc CSF) it was 106 nM. For the same compound, the Kp at 0.5 h in series [4] (setting [7]) stood at 1.17; in series [4] (read-out: c(CSF)/c(plasma)) it was 0.09. In addition, the fraction unbound at 2 h, 1 µM is 0.162 in series [3] and 0.128 in series [5].

For `Cc1nn2cc(C3CC3)cnc2c1C(=O)NC1(c2ccc(C(F)(F)F)nc2)CCOCC1` [Example 25], the values for the IC50 against PDE10 and at PDE 2A were 9070 nM and 88 nM, respectively. The half-life at 1 µM in series [1] was > 2.17 h. Also, the concentration at 0.5 h in series [4] (setting [6]) came out at 957 nM; in series [4] (plasma, read-out: conc plasma), 1040 nM; in series [4] (read-out: conc CSF), 111 nM. The Kp at 0.5 h in series [4] (setting [7]) worked out at 0.92; in series [4] (read-out: c(CSF)/c(plasma)) it was 0.12. For the same compound, the fraction unbound at 2 h, 1 µM in series [3] was 0.246; in series [5], 0.169.
